system: primary cultures of granular cerebellum cells; test: not given; assay type: cell-based, Wistar rats; details: 500 μM hydrogen peroxide, rat cerebellum granular cells; read-out: IC50 during the induced neuronal damage by Hydrogen Peroxide addition to a primary culture of neurons
Method: Primary cultures of granular cerebellum cells were obtained from 7-9 days Wistar rats. After a rapid dissection, rat cerebellums were submerged in a cold solution and meningeal membranes were removed, each organ was transferred to a 2-3 ml fresh medium solution and finely sliced. Cells were dissociated using a Pasteur pipette and filtered through a nylon […] membrane (Falcon, Franklin Lakes, N.J.). The number of viable cells was determined by cell counting in a hematocytometer with tripan blue as a marker. Cells were cultured on polylysine covered 96 well plates at a density of 6250 cells in […] final volume. Cultures were kept at 37° C. in 5%. CO2 after 24 h, 10 μM of cytosine arabinofuranose (AraC; Sigma) was added to inhibit the proliferation of non-neuronal cells. The capacity of neural damage prevention was tested adding 500 μM hydrogen peroxide in different concentrations of peptidic GHS analog compounds, Cell survival was determined using the Promega non-radioactive cytotoxicity proliferation assay, Cell Titer 96 (Promega).

Sequence | IC50 [nM]
GGGKFWDIPHH [Compound A231, L-amino acid peptide with internal side-chain cycle, SEC; ID NO: 11] | 3460
GKFDSPEHQ [Compound A230] | 3810
GLEFKLLHQ [Compound A238, L-amino acid peptide with internal side-chain cycle, SEC; ID NO: 18] | 1000
GMEAGIKLCHRQ [Compound A235, L-amino acid peptide with internal side-chain cycle, SEC; ID NO: 15] | 1010
HAKPGGIDPEQ [Compound A229, L-amino acid peptide with internal side-chain cycle, SEC; ID NO: 9] | 1330

system: tilapia Oreochromis sp. larvae; test: Growth stimulation of tilapia larvae by immersion; assay type: in vivo; details: immersion 100 μg/L, one hour twice a week, three weeks
Method: (§1) Growth stimulation experiments on tilapia Oreochromis sp. larvae were performed evaluating groups of 100 larvae with 0.01 g average, using the peptidic GHS analogs, in a 100 μg/L concentration, twice a week using an immersion time of one hour.

Sequence | Weight Inc. (%), control group growing = 100% [%]
GGGKFWDIPHH [Compound A231, L-amino acid peptide with internal side-chain cycle, SEC; ID NO: 11] | 151.0
GKFDSPEHQ [Compound A230] | 150.0
GLEFKLLHQ [Compound A238, L-amino acid peptide with internal side-chain cycle, SEC; ID NO: 18] | 112.6
GMEAGIKLCHRQ [Compound A235, L-amino acid peptide with internal side-chain cycle, SEC; ID NO: 15] | 90.0
HAKPGGIDPEQ [Compound A229, L-amino acid peptide with internal side-chain cycle, SEC; ID NO: 9] | 125.0

system: tilapias; test: Growth acceleration on juvenile tilapias treated intraperitoneally; assay type: in vivo; details: juvenile tilapia, ip 0.1 μg/g twice a week, three weeks
Method: The compounds were dissolved in a sodium phosphate (PBS) buffer solution and injected twice a week, during three weeks at 0.1 μg/g of humid fish weight (gbw). Compounds were applied individually to a group of 10 male tilapias with an average weight of 60.41±10.36 g and a control group with an average weight of 60.58±19.67 g was receiving PBS only as a control, measuring the average weight every week, all animals in the experiment were labelled with microchips (Stoelting Co. Wood Dale, USA.). for proper identification.

Sequence | Weight Inc. (%), control group growing = 100% [%]
GGGKFWDIPHH [Compound A231, L-amino acid peptide with internal side-chain cycle, SEC; ID NO: 11] | 150.2
GKFDSPEHQ [Compound A230] | 158.0
GLEFKLLHQ [Compound A238, L-amino acid peptide with internal side-chain cycle, SEC; ID NO: 18] | 129.4
GMEAGIKLCHRQ [Compound A235, L-amino acid peptide with internal side-chain cycle, SEC; ID NO: 15] | 89.9
HAKPGGIDPEQ [Compound A229, L-amino acid peptide with internal side-chain cycle, SEC; ID NO: 9] | 126.5

system: IGF-I mRNA; test: IGF-I mRNA in liver and GH level of intraperitoneally injected tilapias; assay type: in vivo, tilapia; details: liver of intraperitoneally injected tilapias
Method: IGF-I mRNa was determined in the liver of intraperitoneally injected tilapias monitoring also the GH level time course, showing the peptidic GHS analog compounds as able to stimulate in fish the GH levels in the bloodstream and at incrementing the IGF-I mRNA levels after the injection of the compounds as shown in table 4.

Sequence | Normalized IGF-I mRNA levels to a non related synthetic peptide control group
GGGKFWDIPHH [Compound A231, L-amino acid peptide with internal side-chain cycle, SEC; ID NO: 11] | 1.39
GKFDSPEHQ [Compound A230] | 1.48
GLEFKLLHQ [Compound A238, L-amino acid peptide with internal side-chain cycle, SEC; ID NO: 18] | 1.24
GMEAGIKLCHRQ [Compound A235, L-amino acid peptide with internal side-chain cycle, SEC; ID NO: 15] | 0.9
HAKPGGIDPEQ [Compound A229, L-amino acid peptide with internal side-chain cycle, SEC; ID NO: 9] | 1.09

system: PC12 cells; test: not given; assay type: cell-based; details: differentiated PC12 cells, 72 h incubation, MTT; read-out: IC50 during the NGF deprivation induced neuronal death
Method: PC12 cells were stored in 75 cm^2 culture flasks on DMEM containing 5% bovine foetal serum and 10% horse serum, with 50 μg/ml gentamicin. Cells were incubated at 37° C. in 5% CO2. To induce differentiation cells were transferred at a density of 1×10^4 to polylysine covered 96 well plates in NGF supplemented DMEM media for 7 days, with medium replacement every 2-3 days. After differentiation cells were incubated with peptidic GHS analog compounds, at different concentrations for 72 h. Cell survival and proliferation was determined using the Promega non-radioactive cytotoxicity proliferation assay, Cell Titer 96, based in the conversion of 3-(4,5-dimethylthiazole-2-yl)-2,5-diphenyltetrazolium bromide (MTT) in to a spectrophotometrically detectable product. After deprivation of NGF medium is removed and 15 μl of the DMEM dissolved dye is added, after 4 hours of 37° C. incubation 100 μl of the stopping solution is added and absorbance is measured at 570 nm

Sequence | IC50 [nM]
GGGKFWDIPHH [Compound A231, L-amino acid peptide with internal side-chain cycle, SEC; ID NO: 11] | 4000
GKFDSPEHQ [Compound A230] | 4060
GLEFKLLHQ [Compound A238, L-amino acid peptide with internal side-chain cycle, SEC; ID NO: 18] | 2040
GMEAGIKLCHRQ [Compound A235, L-amino acid peptide with internal side-chain cycle, SEC; ID NO: 15] | 2050
HAKPGGIDPEQ [Compound A229, L-amino acid peptide with internal side-chain cycle, SEC; ID NO: 9] | 3410

system: Litopenaeus vanamei post-larvae; test: Growth of shrimp post-larvae fed Artemia-bioencapsulated compounds; assay type: in vivo; details: Artemia bioencapsulated (10 mh/L, one hour), fed four times a day for one month
Method: The peptidic GHS analogs were bioencapsulated in Artemia to be fed to Litopenaeus vanamei post-larvae. For the encapsulation the compounds were added in a 10 mh/L left for an hour, harvested and washed. The animals were fed four times a day for one month while the control group was fed with BSA encapsulated Artemia The effect was measured with an optical micrometer and weighing the animals in a 0.1 mg precision scale.

Sequence | Size Inc. (%), control group growing = 100% [%]
GGGKFWDIPHH [Compound A231, L-amino acid peptide with internal side-chain cycle, SEC; ID NO: 11] | 140.2
GKFDSPEHQ [Compound A230] | 140.0
GLEFKLLHQ [Compound A238, L-amino acid peptide with internal side-chain cycle, SEC; ID NO: 18] | 140.0
GMEAGIKLCHRQ [Compound A235, L-amino acid peptide with internal side-chain cycle, SEC; ID NO: 15] | 134.2
HAKPGGIDPEQ [Compound A229, L-amino acid peptide with internal side-chain cycle, SEC; ID NO: 9] | 140.0

system: Litopenaeus vanamei; test: Growing of shrimp larvae by dipping in solution of the compounds; assay type: in vivo; details: four dips of one hour every three days, 0.1 g/L
Method: Shrimp larvae were subjected two four dips, for one hour every three days with different peptidic GHS analogs at 0.1 g/L. The control group was subjected to the same frequency of dipping with 1 mg/L BSA.

Sequence | Size Inc. (%), control group growing = 100% [%] | Weight Inc. (%), control group growing = 100% [%]
GGGKFWDIPHH [Compound A231, L-amino acid peptide with internal side-chain cycle, SEC; ID NO: 11] | 123.0 | 130.0
GKFDSPEHQ [Compound A230] | 123.6 | 150.0
GLEFKLLHQ [Compound A238, L-amino acid peptide with internal side-chain cycle, SEC; ID NO: 18] | 117.9 | 129.2
GMEAGIKLCHRQ [Compound A235, L-amino acid peptide with internal side-chain cycle, SEC; ID NO: 15] | 112.5 | 121.0
HAKPGGIDPEQ [Compound A229, L-amino acid peptide with internal side-chain cycle, SEC; ID NO: 9] | 115.9 | 126.1

system: lysozyme; test: Lysozyme levels in tilapia larvae treated by immersion; assay type: in vivo, Oreochromis sp.; details: immersion 100 μg/L
Method: as §1
During this experiment lysozyme levels were also monitored and an increase of this immunity marker was obtained in the treated animals as shown in table 8.

Sequence | Lysozyme levels of the treated animals relative to the control group
GGGKFWDIPHH [Compound A231, L-amino acid peptide with internal side-chain cycle, SEC; ID NO: 11] | 1.89
GKFDSPEHQ [Compound A230] | 1.33
GLEFKLLHQ [Compound A238, L-amino acid peptide with internal side-chain cycle, SEC; ID NO: 18] | 1.33
GMEAGIKLCHRQ [Compound A235, L-amino acid peptide with internal side-chain cycle, SEC; ID NO: 15] | 1.90
HAKPGGIDPEQ [Compound A229, L-amino acid peptide with internal side-chain cycle, SEC; ID NO: 9] | 1.15

system: Post-larvae of Litopenaeus vanamei; test: Growth stimulation in shrimps by dietary supplementation; assay type: in vivo; details: compound at 1% in post-larvae crustacean diet
Method: The peptidic GHS analogs were included at 1% in a post-larvae crustacean diet. Post-larvae of Litopenaeus vanamei were fed with the aforementioned diet in parallel with a control group with 1% BSA addition. The effect was measured with an optical micrometer and weighing the animals in a 0.1 mg precision scale.

Sequence | Size Inc. (%), control group growing = 100% [%]
GGGKFWDIPHH [Compound A231, L-amino acid peptide with internal side-chain cycle, SEC; ID NO: 11] | 140.1
GKFDSPEHQ [Compound A230] | 140.0
GLEFKLLHQ [Compound A238, L-amino acid peptide with internal side-chain cycle, SEC; ID NO: 18] | 130.1
GMEAGIKLCHRQ [Compound A235, L-amino acid peptide with internal side-chain cycle, SEC; ID NO: 15] | 137.0
HAKPGGIDPEQ [Compound A229, L-amino acid peptide with internal side-chain cycle, SEC; ID NO: 9] | 140.0
